Results on six compounds are retold here after patent publication US20230064983A1 (priority 2020, published 2023).

The target in assay [1] is Ba/F3-EGFR-D770_N771insSVD C797S cells (Homo sapiens, UniProt P00533, DUP768-770/C797S, cells depend on it). The assay is described as follows: Ba/F3 cell survival assay, EGFR D770_N771insSVD C797S. In kind it is cell-based. Conditions: aquired resistance space; Table 8; read-out: BA/F3 (EGFR 0770_N771 insSVD C797S) IC50.
In assay [2] the target is T1, EGFR with insertion SVD between D770 and N771 (mutEGFR D770_N771insSVD) (Homo sapiens, UniProt P00533, DUP768-770).
T1 construct: amino acids R669 to A1210; made in house; host or cells: Sf9 insect cells (baculovirus)
As to the kind of experiment: Exon20-Mutant-EGFR(D770_N771insSVD) kinase assay (TR-FRET). In kind it is biochemical. Conditions: 2 mM ATP, Table 2. Background: Time-resolved FRET reads energy transfer from a long-lived donor to a nearby acceptor.

The target of assay [3] is Ba/F3-EGFR-L858R cells (Homo sapiens, UniProt P00533, L858R, cells depend on it). The assay is described as follows: Ba/F3 cell survival assay, EGFR L858R. In kind it is cell-based. To be noted: classical activating and rare EGFR mutations; Table 7; read-out: BA/F3 (EGFR L858R) IC50.
The target in assay [4] is Ba/F3-EGFR-D770_N771insSVD cells (Homo sapiens, UniProt P00533, DUP768-770, cells depend on it). The assay is described as follows: Ba/F3 cell survival assay, EGFR D770_N771insSVD. In kind it is cell-based. To be noted: Cell Titer-Glo, 48 h, without IL-3; Table 4; read-out: BA/F3 (insSVD) IC50. In general terms: Cellular ATP, detected with luciferase, serves as a proxy for viable cell number.

The target of assay [5] is Ba/F3-EGFR L861Q cells (Homo sapiens, UniProt P00533, L861Q, cells depend on it). The assay is described as follows: Ba/F3 cell survival assay, EGFR L861Q. The format is cell-based. To be noted: classical activating and rare EGFR mutations; Table 7; read-out: BA/F3 (EGFR L861Q) IC50.
For assay [6], the target named is T2, Bub1 (Homo sapiens, UniProt O43683).
T2 construct: catalytic domain of human Bub1 (amino acids 704-1085); His6 (N); made in house; host or cells: insect cells (Hi5)
The assay is described as follows: Bub1 high ATP kinase assay (TR-FRET). The format is biochemical. Conditions: Bub1 high ATP (2 mM) IC50, TR-FRET, 2 mM ATP; Table 3. In outline: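 Read-out was the 665/620 nm TR-FRET ratio after 1 h at 22 °C with EDTA stop mix (streptavidin-XL665, anti-phosphoserine antibody, Eu anti-mouse IgG). Beforehand, a biotinylated peptide was phosphorylated for 60 min at 22 °C under high ATP by His6-tagged human Bub1 residues 704-1085 expressed in Hi5 cells, about 200 ng/ml.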

For assay [7], the target named is Ba/F3-EGFR-V769_D770insASV cells (Homo sapiens, UniProt P00533, DUP767-769, cells depend on it). As to the kind of experiment: Ba/F3 cell survival assay, EGFR V769_D770insASV. In kind it is cell-based. Conditions: EGFR Exon20 insertion mutations; Table 6; read-out: BA/F3 (ASV) IC50.

pIC50: −log10 of the molar value. Several values for one entry are separate records, joined by “and”; a condition that tells them apart may be missing. Identical values can stand only once.

T1 sequence (P00533 other isoform, or with tags, fused parts or gaps DUP768-770): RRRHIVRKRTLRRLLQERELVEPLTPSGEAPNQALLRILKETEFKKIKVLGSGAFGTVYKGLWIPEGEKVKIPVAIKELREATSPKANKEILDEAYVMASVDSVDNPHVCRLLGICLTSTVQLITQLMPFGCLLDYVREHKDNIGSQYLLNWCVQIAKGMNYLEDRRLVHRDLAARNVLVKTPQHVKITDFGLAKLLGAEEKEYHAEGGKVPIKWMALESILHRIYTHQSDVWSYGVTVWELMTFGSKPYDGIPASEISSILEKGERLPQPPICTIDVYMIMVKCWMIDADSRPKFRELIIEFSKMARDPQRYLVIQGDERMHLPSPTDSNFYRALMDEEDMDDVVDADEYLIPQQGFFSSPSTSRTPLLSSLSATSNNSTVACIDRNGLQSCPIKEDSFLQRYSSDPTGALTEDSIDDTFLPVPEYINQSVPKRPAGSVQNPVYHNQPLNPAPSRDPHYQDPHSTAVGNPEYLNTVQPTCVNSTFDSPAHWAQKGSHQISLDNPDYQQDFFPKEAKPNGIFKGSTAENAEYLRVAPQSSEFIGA
Sequence of Ba/F3-EGFR-L858R cells (P00533 whole entry L858R): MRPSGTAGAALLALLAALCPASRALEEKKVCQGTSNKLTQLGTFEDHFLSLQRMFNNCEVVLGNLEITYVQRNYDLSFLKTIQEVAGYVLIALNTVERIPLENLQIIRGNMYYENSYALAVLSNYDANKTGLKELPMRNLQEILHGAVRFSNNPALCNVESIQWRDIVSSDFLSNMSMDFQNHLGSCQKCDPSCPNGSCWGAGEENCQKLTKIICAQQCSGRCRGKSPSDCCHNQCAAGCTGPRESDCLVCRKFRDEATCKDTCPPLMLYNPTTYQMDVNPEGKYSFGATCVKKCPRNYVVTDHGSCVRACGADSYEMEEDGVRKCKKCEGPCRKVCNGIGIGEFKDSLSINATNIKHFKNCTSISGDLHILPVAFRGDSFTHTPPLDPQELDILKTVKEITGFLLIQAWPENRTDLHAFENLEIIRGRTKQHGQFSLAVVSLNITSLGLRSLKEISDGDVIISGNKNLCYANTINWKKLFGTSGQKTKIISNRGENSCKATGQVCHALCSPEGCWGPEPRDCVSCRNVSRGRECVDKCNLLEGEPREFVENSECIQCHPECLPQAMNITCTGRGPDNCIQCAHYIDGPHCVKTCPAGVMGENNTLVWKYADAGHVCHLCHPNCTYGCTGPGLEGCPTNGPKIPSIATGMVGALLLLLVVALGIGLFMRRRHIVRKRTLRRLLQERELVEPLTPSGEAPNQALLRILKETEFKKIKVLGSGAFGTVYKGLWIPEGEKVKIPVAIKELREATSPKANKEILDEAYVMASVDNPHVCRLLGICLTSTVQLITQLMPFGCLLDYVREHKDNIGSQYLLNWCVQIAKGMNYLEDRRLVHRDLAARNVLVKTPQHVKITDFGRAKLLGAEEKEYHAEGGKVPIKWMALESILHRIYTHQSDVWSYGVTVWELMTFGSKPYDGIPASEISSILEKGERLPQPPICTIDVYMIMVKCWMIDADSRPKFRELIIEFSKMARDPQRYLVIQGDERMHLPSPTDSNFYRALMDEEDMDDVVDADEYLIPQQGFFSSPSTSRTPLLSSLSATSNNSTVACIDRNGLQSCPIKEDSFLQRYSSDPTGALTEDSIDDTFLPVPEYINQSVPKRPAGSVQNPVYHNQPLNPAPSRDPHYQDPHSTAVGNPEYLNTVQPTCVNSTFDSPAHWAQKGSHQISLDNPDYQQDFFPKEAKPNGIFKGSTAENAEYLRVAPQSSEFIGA
Sequence of Ba/F3-EGFR-D770_N771insSVD cells (P00533 with tags, fused parts or gaps DUP768-770): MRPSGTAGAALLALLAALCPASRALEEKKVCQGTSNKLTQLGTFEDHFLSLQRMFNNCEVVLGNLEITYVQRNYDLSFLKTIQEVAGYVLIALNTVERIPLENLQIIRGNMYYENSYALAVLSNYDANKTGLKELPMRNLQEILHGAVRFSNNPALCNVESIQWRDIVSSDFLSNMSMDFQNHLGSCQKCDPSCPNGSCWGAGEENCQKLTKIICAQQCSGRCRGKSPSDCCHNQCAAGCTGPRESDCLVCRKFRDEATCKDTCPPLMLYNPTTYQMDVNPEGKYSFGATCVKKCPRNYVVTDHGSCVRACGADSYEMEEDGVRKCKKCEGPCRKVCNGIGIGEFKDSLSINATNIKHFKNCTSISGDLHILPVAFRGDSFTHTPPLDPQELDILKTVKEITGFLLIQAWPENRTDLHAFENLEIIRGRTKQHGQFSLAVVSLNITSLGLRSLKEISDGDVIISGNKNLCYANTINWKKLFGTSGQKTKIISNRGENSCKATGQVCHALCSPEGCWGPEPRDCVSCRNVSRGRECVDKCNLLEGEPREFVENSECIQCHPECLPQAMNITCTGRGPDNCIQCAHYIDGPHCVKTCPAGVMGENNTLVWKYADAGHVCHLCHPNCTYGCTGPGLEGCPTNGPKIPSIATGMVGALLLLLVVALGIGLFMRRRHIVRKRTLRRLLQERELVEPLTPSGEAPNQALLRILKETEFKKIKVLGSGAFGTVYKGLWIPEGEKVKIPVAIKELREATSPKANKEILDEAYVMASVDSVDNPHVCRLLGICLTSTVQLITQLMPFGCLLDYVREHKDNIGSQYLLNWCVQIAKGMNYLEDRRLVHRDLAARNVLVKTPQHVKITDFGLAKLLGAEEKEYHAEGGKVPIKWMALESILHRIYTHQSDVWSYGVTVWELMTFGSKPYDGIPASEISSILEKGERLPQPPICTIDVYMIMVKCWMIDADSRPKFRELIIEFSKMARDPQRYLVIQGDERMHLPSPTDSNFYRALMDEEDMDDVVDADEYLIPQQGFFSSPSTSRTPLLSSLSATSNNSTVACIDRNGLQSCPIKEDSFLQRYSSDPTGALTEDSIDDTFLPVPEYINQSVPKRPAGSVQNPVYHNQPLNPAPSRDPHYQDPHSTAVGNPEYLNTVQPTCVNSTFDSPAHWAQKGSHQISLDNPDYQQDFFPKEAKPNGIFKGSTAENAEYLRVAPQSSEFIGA
Sequence of Ba/F3-EGFR L861Q cells (P00533 whole entry L861Q): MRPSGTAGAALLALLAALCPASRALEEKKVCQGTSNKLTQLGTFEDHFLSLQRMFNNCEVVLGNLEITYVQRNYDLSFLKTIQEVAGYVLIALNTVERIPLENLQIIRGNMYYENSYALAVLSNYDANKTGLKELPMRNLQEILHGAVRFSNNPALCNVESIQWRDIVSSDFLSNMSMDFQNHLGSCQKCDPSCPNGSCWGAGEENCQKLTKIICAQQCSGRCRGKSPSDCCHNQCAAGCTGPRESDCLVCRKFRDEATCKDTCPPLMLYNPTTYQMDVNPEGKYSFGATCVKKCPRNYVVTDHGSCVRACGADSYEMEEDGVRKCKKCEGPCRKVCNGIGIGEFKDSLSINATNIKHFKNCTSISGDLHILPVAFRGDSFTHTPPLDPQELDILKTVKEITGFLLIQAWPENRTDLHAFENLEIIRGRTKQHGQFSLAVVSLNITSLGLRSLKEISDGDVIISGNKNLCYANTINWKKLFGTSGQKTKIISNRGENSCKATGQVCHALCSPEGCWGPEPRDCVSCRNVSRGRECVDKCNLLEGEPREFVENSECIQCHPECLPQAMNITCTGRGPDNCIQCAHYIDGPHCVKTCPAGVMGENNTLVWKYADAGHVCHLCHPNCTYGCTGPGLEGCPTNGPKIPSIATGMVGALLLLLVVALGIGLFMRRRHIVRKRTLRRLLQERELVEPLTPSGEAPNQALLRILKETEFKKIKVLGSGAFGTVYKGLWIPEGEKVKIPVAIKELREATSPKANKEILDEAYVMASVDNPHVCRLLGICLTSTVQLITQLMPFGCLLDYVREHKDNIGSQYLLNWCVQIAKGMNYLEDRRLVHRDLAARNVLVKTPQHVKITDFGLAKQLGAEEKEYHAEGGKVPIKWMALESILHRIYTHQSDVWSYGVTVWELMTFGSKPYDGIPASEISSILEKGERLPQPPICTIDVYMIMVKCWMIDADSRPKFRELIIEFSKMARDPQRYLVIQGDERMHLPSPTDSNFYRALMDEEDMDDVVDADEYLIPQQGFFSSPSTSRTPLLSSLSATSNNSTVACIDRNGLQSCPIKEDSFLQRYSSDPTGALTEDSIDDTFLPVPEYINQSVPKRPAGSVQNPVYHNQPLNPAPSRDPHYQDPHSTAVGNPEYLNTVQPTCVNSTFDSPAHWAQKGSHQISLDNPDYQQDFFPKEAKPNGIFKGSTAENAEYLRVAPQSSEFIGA
T2 sequence (O43683 704-1085): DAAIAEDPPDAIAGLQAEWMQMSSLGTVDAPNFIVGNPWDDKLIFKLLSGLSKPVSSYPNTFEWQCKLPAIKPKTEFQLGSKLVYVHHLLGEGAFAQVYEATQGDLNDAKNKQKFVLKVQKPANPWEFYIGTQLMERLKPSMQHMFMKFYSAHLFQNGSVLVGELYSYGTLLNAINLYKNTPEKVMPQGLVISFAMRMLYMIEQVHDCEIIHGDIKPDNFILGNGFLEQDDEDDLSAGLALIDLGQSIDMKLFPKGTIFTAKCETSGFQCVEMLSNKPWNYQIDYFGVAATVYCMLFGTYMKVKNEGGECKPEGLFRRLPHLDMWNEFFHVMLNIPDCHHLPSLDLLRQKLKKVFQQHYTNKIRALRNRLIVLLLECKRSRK

As a reminder, the pIC50 is the negative decadic logarithm of the IC50, by convention in mol/L. A high value points to a small IC50. Regarding `COc1c(Cl)cccc1Nc1c(-c2ccncc2OCC2COCCO2)[nH]c2c1C(=O)NCC2C` (single isomer, unassigned) [Example 34, 3-(3-chloro-2-methoxy-anilino)-2-[3-(1,4-dioxan-2-ylmethoxy)-4-pyridyl]-7-methyl-1,5,6,7-tetrahydropyrrolo[3,2-c]pyridin-4-one], the GI50 in assay [1] was found to be 35.5 nM; in assay [3], 2.76 nM; in assay [4] it was 20.2 nM; in assay [5], 31.8 nM; in assay [7], 30.2 nM. Besides, the “mutEGFR (D770_N771insSVD) kinase assay IC50” value (“mutEGFR” below) in assay [2] came out at 0.175 nM. In assay [6], this compound gave a pIC50 of under 4.70.
For the compound `COCC(C)Oc1cnccc1-c1[nH]c2c(c1Nc1cccc(Cl)c1OC)C(=O)N[C@@H]1CCC[C@H]21` (single isomer, unassigned) [Example 51], the GI50 amounted to 19.5 nM in assay [1]; 1.32 nM in assay [3]; 13.6 nM in assay [4]; 14.9 nM in assay [5]; 12.8 nM in assay [7]. In addition, in assay [2], the “mutEGFR” value stood at 0.305 nM. In assay [6], this compound gave a pIC50 of 5.15.
With `Cc1c(Cl)cccc1Nc1c(-c2ccncc2OCC2COCCO2)[nH]c2c1C(=O)NCC2C` (single isomer, unassigned) [Example 67, 3-(3-chloro-2-methyl-anilino)-2-[3-(1,4-dioxan-2-ylmethoxy)-4-pyridyl]-7-methyl-1,5,6,7-tetrahydropyrrolo[3,2-c]pyridin-4-one], the GI50 turned out to be 40.6 nM in assay [1]; 3.16 nM in assay [3]; 27.1 nM in assay [4]; 53.6 nM in assay [5]; 40.3 nM in assay [7]. Moreover, in assay [2], the “mutEGFR” value came out at 0.252 nM. In assay [6], this compound showed a pIC50 of 5.00.
With `COc1c(Cl)cccc1Nc1c(-c2ccncc2OCCC2CCCCO2)[nH]c2c1C(=O)N[C@H](C)C2` (single isomer, unassigned) [Example 87], the GI50 turned out to be 22.1 nM in assay [1]; 1.29 nM in assay [3]; 15 nM in assay [4]; 33.4 nM in assay [5]; 13.2 nM in assay [7]. Besides, the “mutEGFR” value in assay [2] was found to be 0.535 nM. Further, the pIC50 in assay [6] is 4.72 and < 4.70.
Turning to `COc1c(Cl)cccc1Nc1c(-c2ccncc2OCCC(C)OC)[nH]c2c1C(=O)N[C@H](C)C2` (single isomer, unassigned) [Example 121], the GI50 in assay [1] came to 21.7 nM; in assay [3], 1.17 nM; in assay [4] it was 8.81 nM; in assay [5] it was 11.2 nM; in assay [7], 10.1 nM. Further, in assay [2], the “mutEGFR” value is 0.188 nM. The pIC50 in assay [6] is 5.74.
In the case of `COc1c(Cl)cccc1Nc1c(-c2ccncc2OC[C@@H]2CCCO2)[nH]c2c1C(=O)NC1(CC1)C2` [Example 113, 3′-(3-chloro-2-methoxyanilino)-2′-(3-{[(2S)-oxolan-2-yl]methoxy}pyridin-4-yl)-1′,7′-dihydrospiro[cyclopropane-1,6′-pyrrolo[3,2-c]pyridin]-4′(5′H)-one], the GI50 in assay [1] amounted to 71.4 nM; in assay [3] it was 3.71 nM; in assay [4] it was 23.7 nM; in assay [5], 45 nM; in assay [7] it was 26 nM. For the same compound, in assay [2], the “mutEGFR” value turned out to be 0.201 nM. This compound gave a pIC50 in assay [6] of 6.12.
